Experimental data as given in patent US6737383B1, “Herbicidal oxadiazolidines” (priority 1999, dated 2004).

Assays:
Alexandergrass [1] = assay: Test D Alexandergrass; assay type: in vivo, Brachiaria plantaginea; details: Rate 64 g/ha, Preemergence; 0 to 100 scale, 0 no injury, 100 complete control
How it was run: (§1)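 Weed seeds planted in sandy loam; species kept apart in individual pots or compartments. Preemergence tests: treatment to soil surface within one day. Greenhouse growth, then visual injury scoring at 14–21 days (0–100).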

common ragweed = assay: Test D common ragweed; assay type: in vivo, Ambrosia elatior; details: Rate 64 g/ha, Preemergence; 0 to 100 scale, 0 no injury, 100 complete control
How it was run: as §1

common groundsel [2] = assay: Test D common groundsel; assay type: in vivo, Senecio vulgaris; details: Rate 64 g/ha, Preemergence; 0 to 100 scale, 0 no injury, 100 complete control
Description: (§2) Seeds, tubers, or plant parts of Alexandergrass (Brachiaria plantaginea), bermuda-grass (Cynodon dactylon), common pursiane (Portulaca oleracea), common ragweed (Ambrosia elatior), common groundsel (Senecio vulgaris), dallisgrass (Paspalum dilatatum), goosegrass (Eleusine indica), guineagrass (Panicum maximum), itchgrass (Rottboellia exaltata), Johnson grass (Sorghum halepense), large crabgrass (Digitaria sanguinalis), pitted morningglory (Ipomoea lacunosa), purple nutsedge (Cyperus rotundus), sandbur (Cenchrus echinatus), sourgrass (Trichachne insularis), Spanishneedles (Bidens bipinnata), surinam grass (Brachiaria decumbens) and tall mallow (Malva sylvestris) were planted into greenhouse pots of flats containing greenhouse planting medium. Plant species were grown in separate pots or individual compartments. Preemergence applications were made within one day of planting the seed or plant part.
(§3) Test chemicals were formulated in a non-phytotoxic solvent mixture which included a surfactant and applied preemergence to the surface of the pot containing seeds in a sandy loam soil. Untreated control pots and treated pots were placed in the greenhouse for growth and visually evaluated for injury 14 to 21 days after herbicide application. Plant response ratings, summarized in Table C, are based on a 0 to 100 scale where 0 is no injury and 100 is complete control. A dash (−) response means no test result.

dallisgrass [3] = assay: Test D dallisgrass; assay type: in vivo, Paspalum dilatatum; details: Rate 64 g/ha, Preemergence; 0 to 100 scale, 0 no injury, 100 complete control
How it was run: as §1

itchgrass [4] = assay: Test D itchgrass; assay type: in vivo, Rottboellia exaltata; details: Rate 64 g/ha, Preemergence; 0 to 100 scale, 0 no injury, 100 complete control
How it was run: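 Scoring used a 0–100 visual injury scale, with 0 meaning no effect and 100 complete control, assessed 14–21 days after application alongside untreated pots. Preemergence treatments went onto sandy loam surfaces of separately potted seeds within a day of sowing.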

large crabgrass = assay: Test D large crabgrass; assay type: in vivo, Digitaria sanguinalis; details: Rate 64 g/ha, Preemergence; 0 to 100 scale, 0 no injury, 100 complete control
How it was run: as §1

pitted morningglory [5] = assay: Test D pitted morningglory; assay type: in vivo, Ipomoea lacunosa; details: Rate 64 g/ha, Preemergence; 0 to 100 scale, 0 no injury, 100 complete control
How it was run: as §1

sandbur = assay: Test D sandbur; assay type: in vivo, Cenchrus echinatus; details: Rate 64 g/ha, Preemergence; 0 to 100 scale, 0 no injury, 100 complete control
How it was run: as §1

Spanishneedles [6] = assay: Test D Spanishneedles; assay type: in vivo, Bidens bipinnata; details: Rate 64 g/ha, Preemergence; 0 to 100 scale, 0 no injury, 100 complete control
Description: as §2, §3

tall mallow [7] = assay: Test D tall mallow; assay type: in vivo, Malva sylvestris; details: Rate 64 g/ha, Preemergence; 0 to 100 scale, 0 no injury, 100 complete control
How it was run: as §1

Alexandergrass [8] = assay: Test D Alexandergrass; assay type: in vivo, Brachiaria plantaginea; details: Postemergence, 0 to 100 scale
common groundsel [9] = assay: Test D common groundsel; assay type: in vivo, Senecio vulgaris; details: Postemergence, 0 to 100 scale
dallisgrass [10] = assay: Test D dallisgrass; assay type: in vivo, Paspalum dilatatum; details: Postemergence, 0 to 100 scale
goosegrass = assay: Test D goosegrass; assay type: in vivo, Eleusine indica; details: Postemergence, 0 to 100 scale
itchgrass [11] = assay: Test D itchgrass; assay type: in vivo, Rottboellia exaltata; details: Postemergence, 0 to 100 scale
pitted morningglory [12] = assay: Test D pitted morningglory; assay type: in vivo, Ipomoea lacunosa; details: Postemergence, 0 to 100 scale
Spanishneedles [13] = assay: Test D Spanishneedles; assay type: in vivo, Bidens bipinnata
tall mallow [14] = assay: Test D tall mallow; assay type: in vivo, Malva sylvestris; details: Postemergence, 0 to 100 scale
Green foxtail [15] = assay: Test D green foxtail; assay type: in vivo; details: Rate 250 g/ha; Postemergence; 0 to 100 scale
Green foxtail [16] = assay: Test D green foxtail; assay type: in vivo; details: Postemergence, 0 to 100 scale, 0 no injury, 100 complete control
Green foxtail [17] = assay: Test D green foxtail; assay type: in vivo; details: Rate 250 g/ha; Postemergence; 0 to 100 scale; remark: listed apart in the source
Green foxtail [18] = assay: Test D green foxtail; assay type: in vivo; details: Postemergence, 0 to 100 scale, 0 no injury, 100 complete control; remark: listed apart in the source
[19] = Rate 16 g/ha, 0 no injury, 100 complete control
[20] = Rate 32 g/ha, 0 no injury, 100 complete control
[21] = Rate 64 g/ha, 0 no injury, 100 complete control
[22] = Rate 125 g/ha, 0 no injury, 100 complete control

Structure (SMILES): C=C(C)Cn1c(=O)on(C(=O)N(c2ccc(F)cc2)C(C)C)c1=O [Compound 139]
- Plant response rating, Alexandergrass (Alexandergrass [1]): 60
- Plant response rating, C. ragweed (common ragweed): 0
- Plant response rating, Com. groundsel (common groundsel [2]): 0
- Plant response rating, Dallisgrass (dallisgrass [3]): 90
- Plant response rating, Itchgrass (itchgrass [4]): 20
- Plant response rating Large crabgrass (large crabgrass): 90
- Plant response rating, P. morninglory (pitted morningglory [5]): 30
- Sandbur plant response rating (sandbur): 40
- Spanishneedles plant response rating (Spanishneedles [6]): 20
- Tall Mallow plant response rating (tall mallow [7]): 20

Structure (SMILES): CC(C)N(C(=O)n1oc(=O)n(C2CC2)c1=O)c1ccccc1 [Compound 243]
- Plant response rating, Alexandergrass (Alexandergrass [8]; [19]): 0
- Plant response rating, Alexandergrass (Alexandergrass [8]; [20]): 0
- Plant response rating, Alexandergrass (Alexandergrass [8]; [21]): 20
- Plant response rating, Alexandergrass (Alexandergrass [8]; [22]): 100
- Plant response rating, Alexandergrass (Alexandergrass [8]; Rate 250 g/ha): 100
- Plant response rating, Com. groundsel (common groundsel [9]; [19]): 0
- Plant response rating, Com. groundsel (common groundsel [9]; [20]): 0
- Plant response rating, Com. groundsel (common groundsel [9]; [21]): 0
- Plant response rating, Com. groundsel (common groundsel [9]; [22]): 100
- Plant response rating, Com. groundsel (common groundsel [9]; Rate 250 g/ha): 100
- Plant response rating, Dallisgrass (dallisgrass [10]; [19]): 0
- Plant response rating, Dallisgrass (dallisgrass [10]; [20]): 50
- Plant response rating, Dallisgrass (dallisgrass [10]; [21]): 70
- Plant response rating, Dallisgrass (dallisgrass [10]; [22]): 100
- Plant response rating, Dallisgrass (dallisgrass [10]; Rate 250 g/ha): 100
- Plant response rating, Goosegrass (goosegrass; [19]): 70
- Plant response rating, Goosegrass (goosegrass; [20]): 80
- Plant response rating, Goosegrass (goosegrass; [21]): 100
- Plant response rating, Goosegrass (goosegrass; [22]): 100
- Plant response rating, Goosegrass (goosegrass; Rate 250 g/ha): 100
- Plant response rating, Itchgrass (itchgrass [11]; [19]): 0
- Plant response rating, Itchgrass (itchgrass [11]; [20]): 0
- Plant response rating, Itchgrass (itchgrass [11]; [21]): 0
- Plant response rating, Itchgrass (itchgrass [11]; [22]): 10
- Plant response rating, Itchgrass (itchgrass [11]; Rate 250 g/ha): 100
- Plant response rating, P. morninglory (pitted morningglory [12]; [19]): 0
- Plant response rating, P. morninglory (pitted morningglory [12]; [20]): 0
- Plant response rating, P. morninglory (pitted morningglory [12]; [21]): 0
- Plant response rating, P. morninglory (pitted morningglory [12]; [22]): 0
- Plant response rating, P. morninglory (pitted morningglory [12]; Rate 250 g/ha): 40
- Plant response rating, Spanishneedles (Spanishneedles [13]; Postemergence; Rate 32 g/ha; 0 to 100 scale, 0 no injury, 100 complete control): 50
- Plant response rating, Spanishneedles (Spanishneedles [13]; Rate 16 g/ha; Postemergence; 0 to 100 scale, 0 no injury, 100 complete control): 0
- Plant response rating, Spanishneedles (Spanishneedles [13]; Rate 32 g/ha; Postemergence; 0 to 100 scale, 0 no injury, 100 complete control): 0
- Spanishneedles plant response rating (Spanishneedles [13]; Rate 64 g/ha, Postemergence; 0 to 100 scale, 0 no injury, 100 complete control): 50
- Spanishneedles plant response rating (Spanishneedles [13]; Rate 125 g/ha, Postemergence; 0 to 100 scale, 0 no injury, 100 complete control): 20
- Plant response rating, Spanishneedles (Spanishneedles [13]; Rate 250 g/ha; Postemergence; 0 to 100 scale): 100
- Plant response rating, Tall Mallow (tall mallow [14]; [19]): 50
- Plant response rating, Tall Mallow (tall mallow [14]; [20]): 20
- Tall Mallow plant response rating (tall mallow [14]; [21]): 30
- Tall Mallow plant response rating (tall mallow [14]; [22]): 40
- Plant response rating, Tall Mallow (tall mallow [14]; Rate 250 g/ha): 60
- Plant response rating, Green foxtail (Green foxtail [15]): 100
- Plant response rating, Green foxtail (Green foxtail [16]; Rate 16 g/ha): 10
- Plant response rating, Green foxtail (Green foxtail [16]; Rate 32 g/ha): 100
- Plant response rating, Green foxtail (Green foxtail [17]): 100
- Plant response rating, Green foxtail (Green foxtail [18]; Rate 16 g/ha): 10
- Plant response rating, Green foxtail (Green foxtail [18]; Rate 32 g/ha): 100
